{"source": "patent US20170356126A1", "about": "“LIQUID FILM CLEAVAGE AGENT” (Kao Corporation, priority 2014, published 2017)", "method": "Further, the water solubility is considered to be applied also to menstrual blood, urine or the like which contains water as a main component.\nSpecifically, the agent is added for every 0.0001 g, and the measurement is performed.\nThese numerical values were measured by the above-mentioned measuring method. […] Moreover, the water solubility was measured by adding the agent for every 0.0001 g."}
{"substance": "dimethyl silicone oil [Comparative Example 2, reference compound]", "values": [{"measurement": "Water solubility of the above agent", "value": 0.0001, "unit": "g"}]}
